The values that follow come from patent publication US8372421B2, “Inhibition of mitogen-activated protein kinases in cardiovascular disease” (New York University, priority 2004, dated 2013).

One experiment deals with ERK-1/2. The conditions noted are these: excised EJV immersed 20 minutes in 80 μmmoles/L UO126 before grafting; 3 hours post-grafting; relative to DMSO-pretreated EJVs. The protocol:
(§1) Carotid artery bypass using reversed autologous external jugular vein (EJV) was performed on 29 purpose-bred mongrel dogs. Following skin incision, the EJV was exposed with a “no-touch” technique, and the side branches were clipped and divided. The dogs received heparin systemically (100 U/kg) and the ipsilateral common carotid artery was dissected free of the surrounding tissue. The EJV was ligated and excised. The lumen of the EJV was flushed with plasmalyte solution without distending the vein. A segment of the excised vein was removed and labeled (“control 1”). The EJV was reversed and grafted to the common carotid artery in an end-to-side fashion with 7-0 polypropylene suture, and the carotid artery was ligated and divided. See Saunders et al., J Thorac Cardiovasc Surg. 2004; 127:1276-1284.
(§2) Each EJV was grafted to a carotid artery. Autologous femoral vein was excised but not treated or grafted.

Another experiment concerns PCNA expression. The following applies: EJV pretreated with 80 μM UO126; 24 hours and 4 days post-grafting; relative to DMSO-pretreated EJVs. As to the method: as §1, §2
In a further experiment the test system is medial cell apoptosis. The following applies: EJV pretreated with 80 μM UO126; 1 day and 4 days post-anastomosis. As to the method: as §1, §2
A further experiment concerns C reactive protein (CRP). The conditions noted are these: graft immersed in UO126 (80 μM/L) prior to grafting; 24 hours post-operatively. As to the method: as §1
(§3) Inflammation is a key component of a vessel's response to injury.
(§4) This experiment, which also used the canine model described in Example 1, investigated the levels of CRP and MPO cells in arterialized vein grafts immersed in a solution of UO126 (80 μM/L) (solubilized with DMSO and diluted in PBS) prior to grafting (i.e., pretreated grafts), arterialized vein grafts that were not pretreated, and contralateral ungrafted, un-pretreated external jugular veins.

The subject of experiment [1] is myeloperoxidase-positive (MPO) cells. The following applies: graft immersed in UO126 (80 μM/L) prior to grafting; 24 hours and 4 days post-operatively. As to the method: as §1, §3, §4
The test system of experiment [2] is arterialized vein graft wall. The following applies: EJV immersed 20 minutes in 80 μmoles/L UO126 before grafting; AVG harvested at 28 days; 1% cholesterol chow; DMSO controls 358.2+/−190.3; p=0.012. As to the method:
The experimental procedure followed in the canine model described in Examples 1, 2, and 3 was applied to white New Zealand rabbits fed a 1% cholesterol chow. Prior to grafting, the excised autologous EJVs were fully immersed for 20 minutes at room temperature in about 5 ml of a solution containing 80 μmoles/L of UO126 (solubilized with DMSO and diluted in PBS) or vehicle (DMSO, 0.8%) alone in PBS. Each EJV was grafted to a carotid artery. Autologous femoral vein was excised but not treated or grafted. The veins were fixed in formaldehyde, and sections stained with hematoxylin/eosin were used for the following analysis.

A further experiment deals with ERK-1/2 activation. The following applies: cited from earlier work.
Experiment [3] has as its system balloon-injured carotid arteries. The following applies: delivered pre- and post-operatively; effect relatively modest; cited from earlier work.

With `N#CC(=C(N)Sc1ccccc1N)C(C#N)=C(N)Sc1ccccc1N` [UO126, 1,4-diamino-2,3-dicyano-1,4-bis[2-aminophenylthio]butadiene], the “ERK-1/2 activation (ratio of phosphorylated to total ERK-1/2)” value in the experiment with ERK-1/2 was “significantly reduced”. For the same compound, the PCNA expression entry in the experiment with PCNA expression is “markedly decreased”. Besides, in the experiment on medial cell apoptosis, the “medial cell apoptosis (TUNEL)” value was “marked and sustained (up to 4 days) induction”. Also, the “upregulation of CRP in arterialized vein grafts” value with C reactive protein (CRP) is recorded as “does not affect”. Besides, in experiment [1], the “levels of MPO cells associated with arterialized vein grafts” value is “significantly downregulated”. The “vein wall thickness (intima+media) to luminal circumference ratio (mean value+/−SD)” value in experiment [2] is 288.8+/−109.5. Besides, the “potency as inhibitor of ERK-1/2 activation compared with PD098059” value with ERK-1/2 activation is recorded as “more potent”.

In the case of `COc1cccc(-c2cc(=O)c3ccccc3o2)c1N` [PD98059, 2-(2′-amino-3′-methoxyphenyl) oxanaphthalen-4-one], in experiment [3], the ERK activation result was “inhibit” and the medial cell proliferation entry was “inhibit”.
